Reference: US9650380B2, “Difluoromethylene compound” (SATO PHARMACEUTICAL CO., LTD., priority 2012, dated 2017)
pIC50: −log10 of the molar value.

Biological target: T1, human URAT1 (Homo sapiens, UniProt Q96S37)
T1 construct: Human URAT1 full-length cDNA was introduced to an expression vector pcDNA5/FRT/V5-His TOPO; expressed in transfected cells
T1 sequence (Q96S37 1-553): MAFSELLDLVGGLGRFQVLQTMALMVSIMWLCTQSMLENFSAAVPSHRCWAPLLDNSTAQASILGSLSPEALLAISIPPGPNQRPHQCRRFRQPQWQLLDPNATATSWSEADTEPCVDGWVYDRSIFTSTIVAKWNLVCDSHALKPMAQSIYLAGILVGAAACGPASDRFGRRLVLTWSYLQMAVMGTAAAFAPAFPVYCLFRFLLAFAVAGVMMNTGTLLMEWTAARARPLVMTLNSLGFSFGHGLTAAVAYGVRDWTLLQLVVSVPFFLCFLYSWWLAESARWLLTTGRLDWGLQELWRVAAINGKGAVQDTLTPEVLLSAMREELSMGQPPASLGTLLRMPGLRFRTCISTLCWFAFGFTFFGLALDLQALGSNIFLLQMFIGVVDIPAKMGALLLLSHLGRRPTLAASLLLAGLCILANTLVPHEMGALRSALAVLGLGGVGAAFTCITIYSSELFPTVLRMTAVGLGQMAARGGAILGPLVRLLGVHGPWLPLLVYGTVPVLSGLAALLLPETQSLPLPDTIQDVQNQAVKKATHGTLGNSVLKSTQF
Experiment: Test for uric acid transport inhibition using human URAT1 expression cells
Assay type: cell-based
Settings: human URAT1 stable expression CHO cells; 14C-labeled uric acid 38 μM final; incorporation 5 minutes at room temperature; 100% window defined with benzbromarone 100 μM; read-out: URAT1 inhibitory activity (IC50)
Description: In this Example, it was evaluated whether the Example compound and the Reference example compound mentioned below has the URAT1 inhibitory activity.
Human URAT1 full-length cDNA was introduced to an expression vector pcDNA5/FRT/V5-His TOPO (registered trademark) (Invitrogen Corporation). The obtained expression plasmid was introduced to Chinese hamster ovary cell (hereinafter referred to as the CHO cell) by the liposome method using Lipofectamine LTX (Invitrogen) and cultured in a selection medium including hygromycin, whereby to prepare human URAT1 stable expression cell.
The human URAT1 expression CHO cell were cultured using D-MEM/F-12 (1:1) mixed medium including 10% bovine fatal serum and hygromycin at 37° C. in the presence of 5% CO2. The cells were seeded onto a 96-well plate (Corning Incorporated) at 0.8×10^5 cells/well, and after 24 hours, the test for uric acid transport inhibition below was performed.
The medium was removed by aspiration, and then the cells were washed once with an assay buffer including 125 mM of sodium gluconate, 4.8 mM of potassium gluconate, 1.2 mM of potassium dihydrogen phosphate, 1.2 mM of magnesium sulfate, 1.3 mM of calcium gluconate and 5.6 mM of glucose, 50 μL assay buffer including the test compound in various concentrations was added, and further 50 μL assay buffer including a radioactive ligand (uric acid labeled with ^14C; 38 μM final concentration) was added, and incorporation reaction was performed at room temperature for 5 minutes. Immediately after the completion of the reaction, the reaction mixture was washed twice with 100 μL ice-cold assay buffer, and 100 μL of 0.1N sodium hydroxide was added. The reaction mixture was stirred to lyse the cells, and 4 mL of Hionic-Fluor (Packard BioScience CO.) was added, and then the radioactivity was measured with a liquid scintillation counter (Beckman Coulter, Inc. and Packard BioScience CO).
The radioactivitiy when each concentration of the test compound was added (uric acid incorporation activity, %) was calculated in which the difference of the radioactivity when the test compound was not added (DMSO added) and the radioactivity when a positive control compound, benzbromarone (a known URAT1 inhibitor) was added in 100 μM, was taken as 100%, and the concentration of the test compound when the uric acid incorporation activity was inhibited to 50% (IC50) was obtained.

pIC50 | SMILES
7.36 | Cc1cccc(C(N)=O)c1Cn1nc(C)c2ccc(C(F)(F)c3nnn[nH]3)nc21 [example 110, 2-{6-[difluoro(1H-tetrazol-5-yl)methyl]-3-methyl-1H-pyrazolo[3,4-b]pyridin-1-ylmethyl}-3-methylbenzamide]
7.44 | Cc1nn(Cc2c(C(N)=O)cccc2C2CC2)c2nc(C(F)(F)c3nnn[nH]3)ccc12 [example 116, 3-cyclopropyl-2-{6-[difluoro(1H-tetrazol-5-yl)methyl]-3-methyl-1H-pyrazolo[3,4-b]pyridin-1-ylmethyl}benzamide]
6.57 | Cc1cccc(C#N)c1Cn1nc(CO)c2ccc(C(F)(F)C(=O)O)cc21 [example 121, [1-(2-cyano-6-methylbenzyl)-3-hydroxymethyl-1H-indazol-6-yl]difluoroacetic acid]
